# pIC50, pKi: −log10 of the molar value. Where “and” joins values, the source holds several entries; their conditions need not be identical. Identical values can stand only once. Like-named read-outs stand apart in the source and are kept apart here.
# Legend:
# [1] = test system: V79MZh1B1 cells; experiment: in vitro; settings: for cytotoxicity in CYP1B1 expressing V79MZh1B1 cells: 24 h exposure, ANF at 1, 10 and 100 μM
# Method: (§1) A Chinese hamster […] fibroblast cell line (V79MZ) and a clone expressing human CYP1B1 (V79MZh1B1), were grown at 37° C., 5%CO2 and at 90% saturated humidity, in DMEM (Dulbecco's modified eagles medium) high glucose type supplemented with 1 mM sodium pyruvate, 10% fetal calf serum, 100 U penicillin/ml and 100 μg streptomycin/ml. Neither cell line expresses endogenous P450s, although cytochrome P450 reductase is present in both cell lines. The parental and CYP1B1 expressing cell lines double in cell number every 10-12 h and were sub-cultured at 1:50 ratio (i.e. 1 ml of cells to 50 ml of fresh media) every 4-5 days. The cells were not allowed to reach confluency at any time, to ensure optimal cell physiological conditions and maximal cytochrome P450 activity. Cells were routinely used at 3rd-5th passage for all experiments.
# (§2) Docetaxel was obtained from Rhone-Poulenc Rorer. Optimal growth conditions were established. The same conditions were used for both cell lines; V79MZ and V79MZh1B1 cells at 60-80% confluence were harvested and seeded at 0.5-1×10^3 cells per well in 96 well culture plates. […] Cells treated with solvent alone acted as a negative control.
# (§3) Enzyme inhibition studies were undertaken by co-administration of docetaxel and the known P450 CYP1 inhibitor ANF (Sigma) at different concentration in the media. Stock solutions of ANF (1 mM, 10 mM and 100 mM) were dissolved in DMSO and added to the media to give final concentrations of 1 μM, 10 μM and 100 μM ANF (in each case the final concentration of DMSO in media was 0.1%). Following 24 h exposure to each drug (with or without inhibitor), the media were removed and replaced with fresh media without drug. In this study, cells were then grown for three doubling times (36 h) with the media changed at 24 hr. […] Media were removed from the wells and replaced with 200 μl of fresh media, followed by addition of 50 μl of MTT solution (50 mg/ml of MTT (Sigma) in sterile PBS), the cells were incubated at 37° C. in a humidified atmosphere with 5%CO2/95% air for 4 h. The MTT containing media was then removed and 200 μl of DMSO plus 25 μl of glycine buffer (0.1 M glycine/0.1 M NaCl pH 10.5) added to the cells in each well. This procedure overcomes any effect that cell density or culture medium may have on the absorption spectrum. The absorbance of the formazan produced by the viable cells was measured once for each well at 540 nm on a Labsystems EMS microplate reader (Life Sciences International). To calculate the cell viability cells treated with solvent alone were assigned a value of 100% absorbance indicating zero cytotoxicity, i.e. 100% viability. The cytotoxic profile of each drug was evaluated in triplicate 96 well plates. Each plate included several controls (media only, cells only and cells treated with solvent alone). The 96 well plate format allowed eight concentrations of the appropriate drug per plate, with eight replicates (i.e. eight separate wells) per drug concentration, i.e. 8 measurements of absorbance for each concentration of drug per plate. There were three triplicate plates per experiment resulting in a total of 24 measurements of absorbance per concentration of drug.
# [2] = in vitro; settings: Chinese hamster
# Method: as §1, §2, §3
# [3] = test system: V79MZ cells; experiment: cells; settings: for pIC50: read-out: IC50 V79MZ (control vector)
# Method: as §1, §2, §3
# [4] = fold less cytotoxic than paclitaxel; cited from earlier work
# [5] = target: T1, CYP1B1 (Homo sapiens, UniProt Q16678); experiment: Inhibition of EROD activity mediated by cDNA expressed cytochrome 1B1; settings: for pKi: Ki Values, Dixon re-plots of EROD activity, mean; for inhibition at 100 μM: human, pH 7.4
# T1 sequence (Q16678 1-543): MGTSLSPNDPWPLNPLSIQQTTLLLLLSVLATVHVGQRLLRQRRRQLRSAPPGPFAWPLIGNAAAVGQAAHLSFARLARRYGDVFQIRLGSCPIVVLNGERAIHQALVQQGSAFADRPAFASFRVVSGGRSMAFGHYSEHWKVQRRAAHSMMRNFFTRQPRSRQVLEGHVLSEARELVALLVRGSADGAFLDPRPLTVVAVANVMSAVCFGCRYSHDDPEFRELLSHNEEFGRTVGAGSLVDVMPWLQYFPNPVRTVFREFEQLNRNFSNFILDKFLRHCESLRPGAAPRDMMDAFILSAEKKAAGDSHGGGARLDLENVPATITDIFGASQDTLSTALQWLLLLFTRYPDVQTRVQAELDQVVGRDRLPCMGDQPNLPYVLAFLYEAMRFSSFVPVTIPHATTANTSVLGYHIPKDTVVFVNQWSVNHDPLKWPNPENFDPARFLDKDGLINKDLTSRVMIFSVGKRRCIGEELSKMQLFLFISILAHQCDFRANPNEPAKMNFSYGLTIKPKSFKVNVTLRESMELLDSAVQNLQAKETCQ
# Source text: Recent immunohistochemical analysis of P4501B1 protein in a variety of solid tumours identified tumour-specific enzyme expression (Murray et al, 1998). This provides a mechanism of resistance to currently used anticancer agents, as well as, an approach for targeted prodrug therapy. 7-ethoxyresorufin deethylase activity (EROD) was used to define interactions with cytochrome 1B1 (CYP1B1). 7-Ethoxyresorufin is a known substrate for P4501B1. […] For this purpose, inhibition constants (Ki) have been calculated using in vitro kinetics from CYP1B1-mediated EROD activity. EROD activity and assay has been described previously by various authors (Lubet et al., 1985, Arch. Biochem. Biophys. 238: pp 43-48; Gentest Corporation, 6 Henshaw St., Woburn, Mass. 01801 USA, data sheet given with CYP1B1, catalogue number P220). 7-Ethoxyresorufin is enzymatically deethylated to a product called resorufin. The appearance of resorufin was monitored by a fluorescence detector set at 550 nm and 582 nm (excitation and emission wavelengths). […] Incubations contained: phosphate buffer at pH 7.4, 7-ethoxyresorufin, CYP1B1 Supersomes from Gentest Co (catalogue number P220) and nicotine adenine dinucleotide phosphate (NADP) as cofactor.
# The metabolism of anti-cancer drugs by CYP1B1 was studied using an inhibition of EROD assay. […] Ki values were determined by the Dixon's replots: see Table 2.
# [6] = target: T2, CYP1A1 (Homo sapiens, UniProt P04798); experiment: Flutamide 2-hydroxylation and inhibition, CYP1A1 compared with CYP1B1; assay type: biochemical; settings: 2-hydroxylation of flutamide; times higher than CYP1B1
# T2 sequence (P04798 1-512): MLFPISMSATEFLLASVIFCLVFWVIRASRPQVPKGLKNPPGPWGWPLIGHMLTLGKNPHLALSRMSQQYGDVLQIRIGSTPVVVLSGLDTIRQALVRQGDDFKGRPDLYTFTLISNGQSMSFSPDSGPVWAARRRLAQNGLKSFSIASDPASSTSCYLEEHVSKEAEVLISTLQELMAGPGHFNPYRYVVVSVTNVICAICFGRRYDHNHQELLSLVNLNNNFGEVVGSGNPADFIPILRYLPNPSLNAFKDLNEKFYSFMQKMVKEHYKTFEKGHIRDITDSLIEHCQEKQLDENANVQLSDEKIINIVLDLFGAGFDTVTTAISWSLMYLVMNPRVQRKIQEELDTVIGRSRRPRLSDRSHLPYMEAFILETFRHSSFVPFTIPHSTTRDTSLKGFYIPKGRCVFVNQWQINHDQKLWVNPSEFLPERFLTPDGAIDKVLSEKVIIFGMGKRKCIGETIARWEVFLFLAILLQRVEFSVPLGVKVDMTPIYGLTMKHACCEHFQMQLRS
# [7] = target: T1, CYP1B1; experiment: Biotransformation studies with CYP1B1; settings: metabolites produced by CYP1B1 incubation but not control incubations
# [8] = test system: CYP1B1, CYP1A1, and CYP1A2
# [9] = test system: CYP1B1, CYP1A1, CYP1A2; experiment: in vitro; settings: human
# [10] = test system: CYP1B1 in kidney tumour samples; experiment: Kidney tumour assay, EROD metabolism with and without inhibitor; assay type: biochemical
# Method: The effect of a CYP1B1 inhibitor was confirmed in an assay using kidney tumour samples. A buffer and NADP regenerating system was allowed to equilibrate at 37° C. and EROD (5 μM final concentration) was then added. This was followed by the addition of either P450 supersomes (control) or the appropriate tumour sample (1 mg). Supersomes were incubated for 15 minutes and tumour samples for 40 minutes.
# [11] = Cricetulus griseus, V79MZ, 24 h
# [12] = 24 h drug exposure, MTT, concentration at which 50% of cells are viable
smiles,measurement,setting,value
O=c1[nH]cc(F)c(=O)[nH]1 [5-Fluorouracil],difference in cytotoxicity between CYP1B1 expressing and non-expressing cells,[1],no significant difference
same,IC50 at 24 h,[2],80000 nM
same,pIC50,[3]; [11],4.15
CC(=O)O[C@H]1C(=O)[C@@]2(C)[C@H]([C@H](OC(=O)c3ccccc3)[C@]3(O)C[C@H](OC(=O)[C@H](O)[C@@H](NC(=O)c4ccccc4)c4ccccc4)C(C)=C1C3(C)C)[C@]1(OC(C)=O)CO[C@@H]1[C@@H](O)[C@@H]2O [6-hydroxytaxol],cytotoxicity relative to parent compound paclitaxel,[4],30 fold
N.N.O=C([O-])C1(C(=O)[O-])CCC1.[Pt+2] [Carboplatin],difference in cytotoxicity between CYP1B1 expressing and non-expressing cells,"[1]; V79MZh1B1 compared with V79MZ, MTT",no significant difference
same,pIC50,"[1]; read-out: IC50 V79MZhB1, 24 h drug exposure, MTT, CYP1B1 expressing cells",4.00
same,pIC50,[3]; [12],4.10
N.N.[Cl][Pt][Cl] [Cisplatin],pIC50,[3]; [12],5.36
O=P1(N(CCCl)CCCl)NCCCO1 (stereo not drawn) [Cyclophosphamide],"inhibition of CYP1B1 activity, initial screening, in words","[5]; initial screening, 1 μM ethoxyresorufin, 100 μM agent",did not inhibit CYP1B1 activity
same,cytotoxicity in CYP1B1 expressing V79MZh1B1 cells,[1]; MTT,No cytotoxicity
same,cytotoxicity in parental V79MZ cells,"[3]; 24 h exposure, MTT, ANF at 1, 10 and 100 μM",No cytotoxicity
COc1cccc2c1C(=O)c1c(O)c3c(c(O)c1C2=O)C[C@@](O)(C(C)=O)C[C@@H]3O[C@H]1C[C@H](N)[C@H](O)[C@H](C)O1 [Daunomycin],pKi,[5],5.68 and 5.67
same,inhibition at 100 μM,[5],53 to 99%
CC(=O)O[C@@]12CO[C@@H]1C[C@H](O)[C@@]1(C)C(=O)[C@H](O)C3=C(C)[C@@H](OC(=O)[C@H](O)[C@@H](NC(=O)OC(C)(C)C)c4ccccc4)C[C@@](O)([C@@H](OC(=O)c4ccccc4)[C@H]21)C3(C)C [Docetaxel],Inhibition Type,[5],competitive
same,pKi,[5],4.55
same,inhibition at 100 μM,[5],53 to 99%
same,difference in cytotoxicity between CYP1B1 expressing and non-expressing cells,[1],at least four-fold
same,IC50 at 24 h,[2],100 nM
same,pIC50,[3]; [11],7.66
COc1cccc2c1C(=O)c1c(O)c3c(c(O)c1C2=O)C[C@@](O)(C(=O)CO)C[C@@H]3O[C@H]1C[C@H](N)[C@H](O)[C@H](C)O1 [Doxorubicin],pKi,[5],5.59
same,inhibition at 100 μM,[5],53 to 99%
same,difference in cytotoxicity between CYP1B1 expressing and non-expressing cells,[1],no significant difference
same,IC50 at 24 h,[2],90 nM
same,pIC50,[3]; [11],7.10
C[C@]12CC[C@@H]3c4ccc(O)cc4CC[C@H]3[C@@H]1CC[C@@H]2O [Estradiol],Inhibition Type,[5],competitive
CC(C)C(=O)Nc1ccc([N+](=O)[O-])c(C(F)(F)F)c1 [Flutamide],Km for CYP1A1 relative to CYP1B1,[6],5 times
same,biotransformation by CYP1B1,[7],biotransformed by CYP1B1
same,Inhibition Type,[5],competitive
same,pKi,[5],6.00
same,inhibition at 100 μM,[5],53 to 99%
same,"inhibition type for CYP1B1, CYP1A1, and CYP1A2 activities",[8],competitive
same,pKi,[9],4.99 to 6.00
CC(=O)N1CCN(c2ccc(OCC3COC(Cn4ccnc4)(c4ccc(Cl)cc4Cl)O3)cc2)CC1 (stereo not drawn) [Ketoconazole],Inhibition Type,[5],non-competitive
same,pKi,[5],6.52 and 6.57
CC(=O)O[C@H]1C(=O)[C@@]2(C)[C@H]([C@H](OC(=O)c3ccccc3)[C@]3(O)C[C@H](OC(=O)[C@H](O)[C@@H](NC(=O)c4ccccc4)c4ccccc4)C(C)=C1C3(C)C)[C@]1(OC(C)=O)CO[C@@H]1C[C@@H]2O [Paclitaxel],biotransformation by CYP1B1,[7],biotransformed by CYP1B1
same,pKi,[5],5.11
same,inhibition at 100 μM,[5],53 to 99%
same,difference in cytotoxicity between CYP1B1 expressing and non-expressing cells,[1],no significant difference
same,pIC50,[3]; [11],7.46
CC/C(=C(\c1ccccc1)c1ccc(OCCN(C)C)cc1)c1ccccc1 [Tamoxifen],pKi,[5],5.30
C[C@]12CC[C@H]3[C@@H](CCC4=CC(=O)CC[C@@]43C)[C@@H]1CC[C@@H]2O [Testosterone],Inhibition Type,[5],competitive
O=c1cc(-c2ccccc2)oc2c1ccc1ccccc12 [α-naphthoflavone],CYP1B1 activity in metabolising EROD,"[10]; kidney tumour Sample 1, plus 10 nM ANF (252 without)",145 fmol/min/mg protein
same,CYP1B1 activity in metabolising EROD,"[10]; kidney tumour Sample 2, plus 10 nM ANF (993 without)",470 fmol/min/mg protein
same,CYP1B1 activity in metabolising EROD,"[10]; kidney tumour Sample 3, plus 10 nM ANF (880 without)",570 fmol/min/mg protein
same,cytotoxicity in CYP1B1 expressing V79MZh1B1 cells,[1]; MTT,Neither cell line (parental or CYP1B1 expressing) showed cytotoxicity
